ChEMBL document CHEMBL5303573, “Mapping human microbiome drug metabolism by gut bacteria and their genes” (Nature, 2019)

Legend:
[1] = akkermansia muciniphila, 12 h, 2 µM
Description: The drug is tested on Akkermansia muciniphila strain: ATCC BAA-835 for biotransformation. The drug concentrations were measured before and after a 12-h incubation by liquid-chromatography-coupled mass spectrometry (LC–MS)

[2] = The drug is tested on Odoribacter splanchnicus strain: fecal isolate for biotransformation. The drug concentrations were measured before and after a 12-h incubation by liquid-chromatography-coupled mass spectrometry (LC–MS); conditions: 2 µM
[3] = bacteroides thetaiotaomicron, 12 h, 2 µM
Description: The drug is tested on Bacteroides thetaiotaomicron strain: 7330 for biotransformation. The drug concentrations were measured before and after a 12-h incubation by liquid-chromatography-coupled mass spectrometry (LC–MS)

[4] = The drug is tested on Clostridium sp. strain: fecal isolate for biotransformation. The drug concentrations were measured before and after a 12-h incubation by liquid-chromatography-coupled mass spectrometry (LC–MS); conditions: 2 µM
[5] = The drug is tested on Clostridium ramosum strain: DSM1402 for biotransformation. The drug concentrations were measured before and after a 12-h incubation by liquid-chromatography-coupled mass spectrometry (LC–MS); conditions: thomasclavelia ramosa, 2 µM
[6] = The drug is tested on Subdoligranulum variabile strain: DSM15176 for biotransformation. The drug concentrations were measured before and after a 12-h incubation by liquid-chromatography-coupled mass spectrometry (LC–MS); conditions: 2 µM
[7] = The drug is tested on Coprococcus comes strain: ATCC27758 for biotransformation. The drug concentrations were measured before and after a 12-h incubation by liquid-chromatography-coupled mass spectrometry (LC–MS); format: ADME; set-up: dose 2 uM, timepoint 0 vs 12 hours; conditions: 2 µM

Row | Structure (SMILES) | Bacterial Biotransformation [1] | Bacterial Biotransformation [2] | Bacterial Biotransformation [3] | Bacterial Biotransformation [4] | Bacterial Biotransformation [5] | Bacterial Biotransformation [6] | Bacterial Biotransformation [7]
1 | CN(C)C(=O)Oc1cc(OC(=O)N(C)C)cc(C(O)CNC(C)(C)C)c1 (stereo unspecified) [BAMBUTEROL] | Compound NOT metabolized | Compound NOT metabolized | Compound NOT metabolized | Compound NOT metabolized | Compound NOT metabolized | Compound NOT metabolized | Compound NOT metabolized
2 | CC(NC(C)(C)C)C(=O)c1cccc(Cl)c1 (stereo unspecified) [BUPROPION] | Compound NOT metabolized | Compound metabolized | Compound NOT metabolized | Compound NOT metabolized | Compound NOT metabolized | Compound NOT metabolized | Compound NOT metabolized
3 | CNCCC(Oc1ccc(C(F)(F)F)cc1)c1ccccc1 (stereo unspecified) [FLUOXETINE] | Compound metabolized | Compound metabolized | Compound metabolized | Compound metabolized | Compound metabolized | Compound metabolized | –
4 | OC(CCN1CCCCC1)(c1ccccc1)C1CC2C=CC1C2 (stereo unspecified) [BIPERIDEN] | Compound NOT metabolized | Compound NOT metabolized | Compound NOT metabolized | Compound NOT metabolized | Compound NOT metabolized | Compound NOT metabolized | Compound NOT metabolized
5 | COc1ccccc1OCCNCC(O)COc1cccc2[nH]c3ccccc3c12 (stereo unspecified) [CARVEDILOL] | Compound metabolized | Compound NOT metabolized | Compound metabolized | Compound NOT metabolized | Compound metabolized | Compound NOT metabolized | Compound NOT metabolized
6 | Cc1nc2n(c(=O)c1CCN1CCC(c3noc4cc(F)ccc34)CC1)CCCC2O (stereo unspecified) [PALIPERIDONE] | Compound metabolized | Compound metabolized | Compound NOT metabolized | Compound metabolized | Compound metabolized | Compound metabolized | Compound metabolized
7 | COc1cc2c(c(OC)c1OC)-c1ccc(OC)c(=O)cc1[C@@H](NC(C)=O)CC2 [COLCHICINE] | Compound NOT metabolized | Compound metabolized | Compound metabolized | Compound metabolized | Compound NOT metabolized | Compound NOT metabolized | Compound NOT metabolized
8 | COc1c(C)c2c(c(O)c1C/C=C(\C)CCC(=O)OCCN1CCOCC1)C(=O)OC2 [MYCOPHENOLATE MOFETIL] | Compound metabolized | Compound metabolized | Compound metabolized | Compound metabolized | Compound metabolized | Compound metabolized | Compound metabolized
9 | CN1CCN(CC/C=C2/c3ccccc3Sc3ccc(S(=O)(=O)N(C)C)cc32)CC1 [THIOTHIXENE] | Compound NOT metabolized | Compound metabolized | Compound NOT metabolized | Compound metabolized | Compound metabolized | Compound NOT metabolized | Compound NOT metabolized
10 | CC(=O)O[C@]1(C(C)=O)CC[C@H]2[C@@H]3C=C(Cl)C4=CC(=O)[C@@H]5C[C@@H]5[C@]4(C)[C@H]3CC[C@@]21C [CYPROTERONE ACETATE] | Compound NOT metabolized | Compound metabolized | Compound metabolized | Compound metabolized | Compound NOT metabolized | Compound NOT metabolized | Compound NOT metabolized
11 | COc1ccc2[nH]c([S+]([O-])Cc3ncc(C)c(OC)c3C)nc2n1 (stereo unspecified) [TENATOPRAZOLE] | Compound metabolized | Compound metabolized | Compound metabolized | Compound metabolized | Compound metabolized | Compound metabolized | Compound metabolized
12 | CCCC(=O)Nc1ccc(OCC(O)CNC(C)C)c(C(C)=O)c1 (stereo unspecified) [ACEBUTOLOL] | Compound NOT metabolized | Compound NOT metabolized | Compound NOT metabolized | – | Compound NOT metabolized | Compound NOT metabolized | Compound NOT metabolized
13 | CN(C)CCc1c[nH]c2ccc(CS(=O)(=O)N3CCCC3)cc12 [ALMOTRIPTAN] | – | Compound NOT metabolized | Compound NOT metabolized | Compound NOT metabolized | Compound NOT metabolized | Compound NOT metabolized | Compound NOT metabolized
14 | CN1CCC[C@@H]1CCO[C@](C)(c1ccccc1)c1ccc(Cl)cc1.O=C(O)/C=C/C(=O)O [CLEMASTINE FUMARATE] | – | Compound metabolized | Compound metabolized | Compound metabolized | Compound NOT metabolized | Compound NOT metabolized | –
15 | CC#C[C@]1(O)CC[C@H]2[C@@H]3CCC4=CC(=O)CCC4=C3[C@@H](c3ccc(N(C)C)cc3)C[C@@]21C [MIFEPRISTONE] | Compound NOT metabolized | Compound NOT metabolized | Compound NOT metabolized | Compound metabolized | Compound NOT metabolized | Compound NOT metabolized | Compound NOT metabolized
16 | CN1CCN(C2=Nc3cc(Cl)ccc3Nc3ccccc32)CC1 [CLOZAPINE] | Compound NOT metabolized | Compound NOT metabolized | Compound NOT metabolized | Compound NOT metabolized | Compound NOT metabolized | Compound NOT metabolized | Compound NOT metabolized
17 | CN1CCc2cccc3c2[C@H]1Cc1ccc(O)c(O)c1-3 [APOMORPHINE] | Compound NOT metabolized | Compound NOT metabolized | Compound NOT metabolized | Compound NOT metabolized | Compound NOT metabolized | Compound NOT metabolized | Compound NOT metabolized
18 | CC(C)(C)NCC(O)c1cc(Cl)c(N)c(Cl)c1 (stereo unspecified) [CLENBUTEROL] | Compound NOT metabolized | Compound NOT metabolized | – | Compound NOT metabolized | Compound NOT metabolized | Compound NOT metabolized | Compound NOT metabolized
19 | CC(C)C[C@H]1C(=O)N2CCC[C@H]2[C@]2(O)O[C@](NC(=O)[C@@H]3C=C4c5cccc6[nH]c(Br)c(c56)C[C@H]4N(C)C3)(C(C)C)C(=O)N12.CS(=O)(=O)O [BROMOCRIPTINE MESYLATE] | Compound metabolized | Compound metabolized | Compound metabolized | Compound metabolized | Compound metabolized | Compound metabolized | –
20 | CSc1ccc2c(c1)C(N1CCN(C)CC1)Cc1ccccc1S2.O=C(O)/C=C\C(=O)O (stereo unspecified) | Compound NOT metabolized | Compound NOT metabolized | Compound NOT metabolized | Compound NOT metabolized | Compound NOT metabolized | Compound NOT metabolized | –
21 | CCN(CC)CCNC(=O)c1ccc(NC(C)=O)cc1 [ACECAINIDE] | Compound NOT metabolized | – | Compound NOT metabolized | Compound NOT metabolized | Compound NOT metabolized | Compound NOT metabolized | Compound NOT metabolized
22 | CN1CCC(=C2c3ccccc3CCc3cccnc32)CC1.O=C(O)/C=C\C(=O)O.O=C(O)/C=C\C(=O)O [AZATADINE MALEATE] | Compound NOT metabolized | – | Compound NOT metabolized | Compound NOT metabolized | Compound NOT metabolized | Compound NOT metabolized | Compound NOT metabolized
23 | CNC(=C[N+](=O)[O-])NCCSCc1csc(CN(C)C)n1 [NIZATIDINE] | Compound NOT metabolized | – | Compound metabolized | Compound metabolized | Compound metabolized | Compound metabolized | Compound NOT metabolized
24 | O=C1CN2Cc3c(ccc(Cl)c3Cl)N=C2N1 [ANAGRELIDE] | – | Compound metabolized | Compound NOT metabolized | Compound metabolized | Compound NOT metabolized | Compound NOT metabolized | Compound NOT metabolized
